{"source": "patent US20090305886A1", "about": "“Pesticidal Mixtures” (BASF SE, priority 2006, published 2009)", "type_in_all_cases": "in vivo", "key": {"[1]": {"system": "Mediterranean Fruitfly (Ceratitis capitata)", "test": "Mediterranean Fruitfly (Ceratitis capitata) egg microtiterplate test", "description": "Mediterranean Fruitfly (Ceratitis capitata)\n(§1) The active compounds are formulated in 1:3 DMSO:water. 50 to 80 eggs are placed into microtiterplates filled with 0.5% agar-agar and 14% diet in water. The eggs are sprayed with 5 μl of the test solution, the plates are sealed with pierced foils and kept at 27-29° C. and 75-85% humidity under fluorescent light for 6 days. Mortality is assessed on the basis of the agility of the hatched larvae. Tests are replicated 2 times.\n(§2) The presence of a synergistic effect in terms of percent control, between the two mixing partners (X and Y) is calculated using the Colby equation (Colby, S. R., 1967, Calculating Synergistic and Antagonistic Responses in Herbicide Combinations, Weeds, 15, 20-22):\n(§3) When the observed combined control effect is greater than the expected combined control effect (E), then the combined effect is synergistic."}, "[2]": {"system": "Boll Weevil (Anthonomus grandis)", "test": "Boll Weevil (Anthonomus grandis) egg microtiterplate test", "description": "Boll Weevil (Anthonomus grandis)\nThe active compounds are formulated in 1:3 DMSO:water. 10 to 15 eggs are placed into microtiterplates filled with 2% agar-agar in water and 300 ppm formaline. The eggs are sprayed with 20 μl of the test solution, the plates are sealed with pierced foils and kept at 24-26° C. and 75-85% humidity with a day/night cycle for 3 to 5 days. Mortality is assessed on the basis of the remaining unhatched eggs or larvae on the agar surface and/or quantity and depth of the digging channels caused by the hatched larvae. Tests are replicated 2 times.\nas §2, §3"}, "[3]": {"system": "Tobacco Budworm (Heliothis virescens)", "test": "Tobacco Budworm (Heliothis virescens) test protocol no. II", "description": "Tobacco Budworm (Heliothis virescens)—Test Protocol no. II\nas §1, with “DMSO:water. 15” for “DMSO:water. 50”, “to 25” for “to 80”, “with diet.” for “with 0.5% agar-agar and 14% diet in water.”, “with 10” for “with 5”, “agility and of comparative feeding” for “agility”\nas §2, §3"}, "[4]": {"system": "Vetch Aphid (Megoura viciae)", "test": "Vetch Aphid (Megoura viciae) leaf disk microtiterplate test", "description": "Vetch Aphid (Megoura viciae)\nThe active compounds are formulated in 1:3 DMSO:water. Bean leaf disks are placed into microtiterplates filled with 0.8% agar-agar and 2.5 ppm OPUS™. The leaf disks are sprayed with 2.5 μl of the test solution and 5 to 8 adult aphids are placed into the microtiterplates which are then closed and kept at 22-24° C. and 35-45% under fluorescent light for 6 days. Mortality is assessed on the basis of vital, reproduced aphids. Tests are replicated 2 times.\nas §2, §3"}, "[5]": {"settings": "0 + 0.3 ppm (compound I-1 alone)"}, "[6]": {"settings": "0 + 0.1 ppm (compound I-1 alone)"}, "[7]": {"settings": "0 + 100 ppm (compound I-1 alone)"}}}
{"compound": "CC(C)N1C(=O)N(c2ccccc2)CS/C1=N\\C(C)(C)C", "note": "[buprofezine]", "values": [{"measurement": "Average Control %", "setting": "[1]; 3 + 0 ppm (buprofezine alone)", "result": 0, "unit": "%"}, {"measurement": "Average Control %", "setting": "[2]; 10 + 0 ppm (buprofezine alone)", "result": 0, "unit": "%"}]}
{"compound": "N#CC(C#N)(CCC(F)(F)F)CC(F)(F)C(F)(F)C(F)(F)C(F)F", "note": "[compound I-1, 2-(2,2,3,3,4,4,5,5-octafluoro-pentyl)-2-(3,3,3-trifluoro-propyl)-malononitrile]", "values": [{"measurement": "Average Control %", "setting": "[3]; [5]", "result": 0, "unit": "%"}, {"measurement": "Average Control %", "setting": "[1]; [6]", "result": 0, "unit": "%"}, {"measurement": "Average Control %", "setting": "[1]; 0 + 30 ppm (compound I-1 alone)", "result": 0, "unit": "%"}, {"measurement": "Average Control %", "setting": "[1]; [7]", "result": 0, "unit": "%"}, {"measurement": "Average Control %", "setting": "[2]; [6]", "result": 0, "unit": "%"}, {"measurement": "Average Control %", "setting": "[2]; [5]", "result": 0, "unit": "%"}, {"measurement": "Average Control %", "setting": "[2]; 0 + 3 ppm (compound I-1 alone)", "result": 0, "unit": "%"}, {"measurement": "Average Control %", "setting": "[4]; [6]", "result": 0, "unit": "%"}, {"measurement": "Average Control %", "setting": "[4]; [7]", "result": 0, "unit": "%"}]}
{"compound": "CC(C)c1cc(Oc2ccccc2)cc(C(C)C)c1NC(=S)NC(C)(C)C", "note": "[diafenthiuron]", "values": [{"measurement": "Average Control %", "setting": "[3]; 300 + 0 ppm (diafenthiuron alone)", "result": 0, "unit": "%"}]}
{"compound": "N#Cc1nn(-c2c(Cl)cc(C(F)(F)F)cc2Cl)c(N)c1[S+]([O-])C(F)(F)F", "note": "(stereo not drawn) [fipronil]", "values": [{"measurement": "Average Control %", "setting": "[1]; 1 + 0 ppm (fipronil alone)", "result": 0, "unit": "%"}, {"measurement": "Average Control %", "setting": "[2]; 1 + 0 ppm (fipronil alone)", "result": 0, "unit": "%"}, {"measurement": "Average Control %", "setting": "[4]; 3 + 0 ppm (fipronil alone)", "result": 50, "unit": "%"}]}
{"compound": "O=[N+]([O-])NC1=NCCN1Cc1ccc(Cl)nc1", "note": "[imidacloprid]", "values": [{"measurement": "Average Control %", "setting": "[2]; 3 + 0 ppm (imidacloprid alone)", "result": 0, "unit": "%"}]}
{"compound": "spinosad", "values": [{"measurement": "Average Control %", "setting": "[1]; 0.3 + 0 ppm (spinosad alone)", "result": 0, "unit": "%"}, {"measurement": "Average Control %", "setting": "[4]; 300 + 0 ppm (spinosad alone)", "result": 0, "unit": "%"}]}
